{
  "source": "patent US5358947A",
  "about": "“Angiotensin II receptor blocking 2,3-substituted pyrazolo[1,5-a]-1,3,5-triazin-4(3H)-ones” (American Cyanamid Company, priority 1993, dated 1994)",
  "system": "ANGIOTENSIN II (AII) VASOPRESSOR RESPONSE",
  "test": "AII Challenge: angiotensin II (AII) vasopressor response in conscious rats",
  "type": "in vivo",
  "parameters": "Response After AII / Change / Average Change: unit not given here",
  "details": "for Response After AII / Change / Control Before AII: individual rat; for Control Before AII: in mmHg (unit assumed); for % Inhibition / Average Change: n = 2",
  "in_short": "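Conscious male Okamoto-Aoki SHR (16-20 weeks, ~330 g), aorta/vena cava cannulated, challenged with AII 0.05 and 0.1 ug/kg i.v. before and at 30-300 min after compound dosed i.v., i.p. or orally. Systolic pressure rise expressed relative to each rat's predose response (100%).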",
  "key": {"[1]": {"details": "10 mg/kg i.v., AII 0.05 mcg/kg, 30 min post dose"}, "[2]": {"details": "10 mg/kg i.v., AII 0.05 mcg/kg, 30 min post dose, listed as Ex. 20"}, "[3]": {"details": "10 mg/kg i.v., AII 0.1 mcg/kg, 30 min post dose, listed as Ex. 20"}, "[4]": {"details": "10 mg/kg i.v., AII 0.1 mcg/kg, 30 min post dose"}, "[5]": {"details": "20 mg/kg i.v., AII 0.05 mcg/kg, 60 min post dose"}, "[6]": {"details": "20 mg/kg i.v., AII 0.05 mcg/kg, 60 min post dose, listed as Ex. 20"}, "[7]": {"details": "20 mg/kg i.v., AII 0.05 mcg/kg, 90 min post dose"}, "[8]": {"details": "20 mg/kg i.v., AII 0.05 mcg/kg, 90 min post dose, listed as Ex. 20"}, "[9]": {"details": "20 mg/kg i.v., AII 0.05 mcg/kg, 120 min post dose"}, "[10]": {"details": "20 mg/kg i.v., AII 0.05 mcg/kg, 120 min post dose, listed as Ex. 20"}, "[11]": {"details": "20 mg/kg i.v., AII 0.05 mcg/kg, 180 min post dose"}, "[12]": {"details": "20 mg/kg i.v., AII 0.05 mcg/kg, 180 min post dose, listed as Ex. 20"}, "[13]": {"details": "20 mg/kg i.v., AII 0.05 mcg/kg, 240 min post dose"}, "[14]": {"details": "20 mg/kg i.v., AII 0.05 mcg/kg, 240 min post dose, listed as Ex. 20"}, "[15]": {"details": "20 mg/kg i.v., AII 0.05 mcg/kg, 300 min post dose, listed as Ex. 20"}, "[16]": {"details": "20 mg/kg i.v., AII 0.05 mcg/kg, 300 min post dose"}, "[17]": {"details": "20 mg/kg i.v., AII 0.1 mcg/kg, 60 min post dose"}, "[18]": {"details": "20 mg/kg i.v., AII 0.1 mcg/kg, 60 min post dose, listed as Ex. 20"}, "[19]": {"details": "20 mg/kg i.v., AII 0.1 mcg/kg, 90 min post dose"}, "[20]": {"details": "20 mg/kg i.v., AII 0.1 mcg/kg, 90 min post dose, listed as Ex. 20"}, "[21]": {"details": "20 mg/kg i.v., AII 0.1 mcg/kg, 120 min post dose"}, "[22]": {"details": "20 mg/kg i.v., AII 0.1 mcg/kg, 120 min post dose, listed as Ex. 20"}, "[23]": {"details": "20 mg/kg i.v., AII 0.1 mcg/kg, 180 min post dose"}, "[24]": {"details": "20 mg/kg i.v., AII 0.1 mcg/kg, 180 min post dose, listed as Ex. 20"}, "[25]": {"details": "20 mg/kg i.v., AII 0.1 mcg/kg, 240 min post dose, listed as Ex. 20"}, "[26]": {"details": "20 mg/kg i.v., AII 0.1 mcg/kg, 240 min post dose"}, "[27]": {"details": "20 mg/kg i.v., AII 0.1 mcg/kg, 300 min post dose, listed as Ex. 20"}, "[28]": {"details": "20 mg/kg i.v., AII 0.1 mcg/kg, 300 min post dose"}},
  "note": "Several values for one entry are separate records, joined by “and”; a condition that tells them apart may be missing. Identical values can stand only once.",
  "data": [
    {"smiles": "CCCCc1nc2c(Br)cnn2c(=O)n1Cc1ccc(-c2ccccc2-c2nn[nH]n2)cc1", "note": "[Example 20]", "values": [
      {"measurement": "Response After AII", "setting": "[1]", "result": 245},
      {"measurement": "Change", "setting": "[2]", "result": "38 and 15"},
      {"measurement": "Response After AII", "setting": "[2]", "result": 215},
      {"measurement": "Control Before AII", "setting": "[2]", "result": "207 and 200"},
      {"measurement": "% Inhibition", "setting": "[1]", "result": 34, "unit": "%"},
      {"measurement": "Average Change", "setting": "[1]", "result": 26.5},
      {"measurement": "Change", "setting": "[3]", "result": "45 and 35"},
      {"measurement": "Response After AII", "setting": "[3]", "result": "260 and 235"},
      {"measurement": "Control Before AII", "setting": "[3]", "result": "215 and 200"},
      {"measurement": "% Inhibition", "setting": "[4]", "result": 36, "unit": "%"},
      {"measurement": "Average Change", "setting": "[4]", "result": 40},
      {"measurement": "Change", "setting": "[5]", "result": 20},
      {"measurement": "Response After AII", "setting": "[5]", "result": 200},
      {"measurement": "Response After AII", "setting": "[6]", "result": 215},
      {"measurement": "Control Before AII", "setting": "[6]", "result": "195 and 180"},
      {"measurement": "% Inhibition", "setting": "[5]", "result": 50, "unit": "%"},
      {"measurement": "Average Change", "setting": "[5]", "result": 20},
      {"measurement": "Response After AII", "setting": "[7]", "result": 200},
      {"measurement": "Change", "setting": "[8]", "result": "10 and 25"},
      {"measurement": "Response After AII", "setting": "[8]", "result": 225},
      {"measurement": "Control Before AII", "setting": "[8]", "result": "215 and 175"},
      {"measurement": "% Inhibition", "setting": "[7]", "result": 56, "unit": "%"},
      {"measurement": "Average Change", "setting": "[7]", "result": 17.5},
      {"measurement": "Response After AII", "setting": "[9]", "result": 250},
      {"measurement": "Change", "setting": "[10]", "result": "45 and 20"},
      {"measurement": "Response After AII", "setting": "[10]", "result": 215},
      {"measurement": "Control Before AII", "setting": "[10]", "result": "205 and 195"},
      {"measurement": "% Inhibition", "setting": "[9]", "result": 19, "unit": "%"},
      {"measurement": "Average Change", "setting": "[9]", "result": 32.5},
      {"measurement": "Response After AII", "setting": "[11]", "result": 210},
      {"measurement": "Control Before AII", "setting": "[11]", "result": 185},
      {"measurement": "Change", "setting": "[12]", "result": "40 and 25"},
      {"measurement": "Response After AII", "setting": "[12]", "result": 225},
      {"measurement": "% Inhibition", "setting": "[11]", "result": 19, "unit": "%"},
      {"measurement": "Average Change", "setting": "[11]", "result": 32.5},
      {"measurement": "Response After AII", "setting": "[13]", "result": 230},
      {"measurement": "Control Before AII", "setting": "[13]", "result": 185},
      {"measurement": "Change", "setting": "[14]", "result": "45 and 40"},
      {"measurement": "Response After AII", "setting": "[14]", "result": 225},
      {"measurement": "% Inhibition", "setting": "[13]", "result": -6, "unit": "%"},
      {"measurement": "Average Change", "setting": "[13]", "result": 42.5},
      {"measurement": "Change", "setting": "[15]", "result": "50 and 35"},
      {"measurement": "Response After AII", "setting": "[15]", "result": "240 and 235"},
      {"measurement": "Control Before AII", "setting": "[15]", "result": "190 and 200"},
      {"measurement": "% Inhibition", "setting": "[16]", "result": -6, "unit": "%"},
      {"measurement": "Average Change", "setting": "[16]", "result": 42.5},
      {"measurement": "Response After AII", "setting": "[17]", "result": 200},
      {"measurement": "Change", "setting": "[18]", "result": "15 and 20"},
      {"measurement": "Response After AII", "setting": "[18]", "result": 215},
      {"measurement": "Control Before AII", "setting": "[18]", "result": "200 and 180"},
      {"measurement": "% Inhibition", "setting": "[17]", "result": 72, "unit": "%"},
      {"measurement": "Average Change", "setting": "[17]", "result": 17.5},
      {"measurement": "Response After AII", "setting": "[19]", "result": 245},
      {"measurement": "Change", "setting": "[20]", "result": "40 and 30"},
      {"measurement": "Response After AII", "setting": "[20]", "result": 215},
      {"measurement": "Control Before AII", "setting": "[20]", "result": "205 and 185"},
      {"measurement": "% Inhibition", "setting": "[19]", "result": 44, "unit": "%"},
      {"measurement": "Average Change", "setting": "[19]", "result": 35},
      {"measurement": "Response After AII", "setting": "[21]", "result": 250},
      {"measurement": "Change", "setting": "[22]", "result": "35 and 20"},
      {"measurement": "Response After AII", "setting": "[22]", "result": 215},
      {"measurement": "Control Before AII", "setting": "[22]", "result": "215 and 195"},
      {"measurement": "% Inhibition", "setting": "[21]", "result": 56, "unit": "%"},
      {"measurement": "Average Change", "setting": "[21]", "result": 27.5},
      {"measurement": "Response After AII", "setting": "[23]", "result": 225},
      {"measurement": "Change", "setting": "[24]", "result": "30 and 60"},
      {"measurement": "Control Before AII", "setting": "[24]", "result": "195 and 165"},
      {"measurement": "% Inhibition", "setting": "[23]", "result": 28, "unit": "%"},
      {"measurement": "Average Change", "setting": "[23]", "result": 45},
      {"measurement": "Change", "setting": "[25]", "result": "60 and 55"},
      {"measurement": "Response After AII", "setting": "[25]", "result": "260 and 245"},
      {"measurement": "Control Before AII", "setting": "[25]", "result": "200 and 190"},
      {"measurement": "% Inhibition", "setting": "[26]", "result": 8, "unit": "%"},
      {"measurement": "Average Change", "setting": "[26]", "result": 57.5},
      {"measurement": "Change", "setting": "[27]", "result": "45 and 55"},
      {"measurement": "Response After AII", "setting": "[27]", "result": "265 and 245"},
      {"measurement": "Control Before AII", "setting": "[27]", "result": "220 and 190"},
      {"measurement": "% Inhibition", "setting": "[28]", "result": 20, "unit": "%"},
      {"measurement": "Average Change", "setting": "[28]", "result": 50}
    ]}
  ]
}
